The values below come from patent US7825102B2, “Treatment of dry eye conditions” (Can-Fite Biopharma Ltd., priority 2004, dated 2010).

What all share (assay type): in vivo, human
Test [1] has as its system RA patients who also suffered from Sicca (dry eyes). The test can be described thus: Schirmer test in RA patients with Sicca given oral IB-MECA capsules twice daily. The protocol: The IB-MECA was formulated in oval softgel capsules. The capsules contained solutions of IB-MECA in Cremophor RH 40 and Miglyol 812. The capsules contained a dose of 0.1, 1 or 4 mg of IB-MECA, the exact composition of each capsules' type is shown in the following Tabels 1-3: The capsules with IB-MECA were given to patients orally twice daily. All patients had rheumatoid arthritis (RA) and were give IB-MECA within the framework of a clinical study aimed at testing the effect of IB-MECA in modifying RA disease symptoms in these patients. The patients received randomly capsules of one of the above there doses. The patients received the IB-MECA for a period of 12 weeks. 4 out of the treated patients also suffered from Sicca and the effect of IB-MECA on their dry eye symptoms was examined as well. Specifically, four patients at the age 58±4 years who suffered from RA for 8±2 years were followed. At base line, the patients had elevated levels of rheumatoid factor, i.e., 313±120 IU/ml (0<normal<40) and had suffered from dry eyes for 5±1.6 years. Upon treatment with IB-MECA for 6.25±1.1 months, an improvement in Schirmer's test from 8.5±1.4 mm to 15.6±2.9 mm was observed.

Test [2] deals with patient with rheumatoid arthritis (RA) and secondary Sjogren symptoms, mainly manifested by dry eye. The test can be described thus: Phase 2 clinical trial: dry eye symptoms of one patient with RA and secondary Sjogren symptoms. The source says:
A patient with rheumatoid arthritis (RA) and secondary Sjogren symptoms, mainly manifested by dry eye, treated for years with eye drops (tear substitutes) participated in a phase 2 clinical trial with IB-MECA for the treatment of active RA. […] The patient took part in a phase 2, multicenter, randomized, double-blind, parallel-group, dose-ranging study of the safety and preliminary efficacy of daily IB-MECA administered orally for 12 weeks to patients with active rheumatoid arthritis. The patient is a person with a 7 year history of RA, previously treated with 3 disease-modifying anti-rheumatic drugs (DMARDs), and a history of 2-3 years of dry eyes treated with tear substitutes a few times a day. After a 4 week DMARD washout period, the patient was treated with a blinded dose of IB-MECA—either 0.1, 1.0 or 4.0 mg q 12 h for 12 weeks. They are currently continuing IB-MECA treatment under a long term extension protocol of the original 12 weeks study.

Test [3] deals with patient with active rheumatoid arthritis. The test can be described thus: Phase 2 clinical trial: condition of the RA in the same patient. The conditions noted are these: one patient; blinded dose 0.1, 1.0 or 4.0 mg q 12 h oral, 12 weeks. From the text:
The patient took part in a phase 2, multicenter, randomized, double-blind, parallel-group, dose-ranging study of the safety and preliminary efficacy of daily IB-MECA administered orally for 12 weeks to patients with active rheumatoid arthritis. The patient is a person with a 7 year history of RA, previously treated with 3 disease-modifying anti-rheumatic drugs (DMARDs), and a history of 2-3 years of dry eyes treated with tear substitutes a few times a day. After a 4 week DMARD washout period, the patient was treated with a blinded dose of IB-MECA—either 0.1, 1.0 or 4.0 mg q 12 h for 12 weeks. They are currently continuing IB-MECA treatment under a long term extension protocol of the original 12 weeks study.

Setting [4] is: Patient 3, dose 4.0 twice daily oral, 7 months treatment, base line 5.

“Also recorded” adds a separate entry of the source.

Regarding `CNC(=O)[C@H]1O[C@@H](n2cnc3c(NCc4cccc(I)c4)ncnc32)[C@H](O)[C@@H]1O` [IB-MECA, N^6-(3-iodobenzyl)-adenosine-5′-N-methyluronamide], the “Schirmer test Left eye End of study” value in test [1] (Mean of 4 patients, doses 0.1-4.0 twice daily, mean 6.25 months treatment, base line mean 6.75) is 16.5 mm; in test [1] (Patient 1, dose 0.1 twice daily oral, 4 months treatment, base line 6) it was 9 mm; in test [1] (Patient 2, dose 1.0 twice daily oral, 5 months treatment, base line 10) it was 32 mm; in test [1] (setting [4]) it was 16 mm; in test [1] (Patient 4, dose 1.0 twice daily oral, 9 months treatment, base line 6) it was 9 mm. For the same compound, the “Schirmer test Right eye End of study” value is on record as 14.75 mm in test [1] (Mean of 4 patients, doses 0.1-4.0 twice daily, mean 6.25 months treatment, base line mean 10.25); 9 mm in test [1] (Patient 1, dose 0.1 twice daily oral, 4 months treatment, base line 14); 23 mm in test [1] (Patient 2, dose 1.0 twice daily oral, 5 months treatment, base line 15); 17 mm in test [1] (setting [4]); 10 mm in test [1] (Patient 4, dose 1.0 twice daily oral, 9 months treatment, base line 7). In test [1] (four RA patients, treatment for 6.25±1.1 months, improvement from 8.5±1.4 mm at base line), the “Schirmer's test after treatment” value is recorded as 15.6±2.9 mm. Moreover, the “symptoms of dry eye (secondary Sjogren's syndrome)” value in test [2] (blinded dose 0.1, 1.0 or 4.0 mg q 12 h oral, 12 weeks plus extension) is “improved significantly; also recorded: substantial improvement”. For the same compound, in test [2] (patient-reported, blinded dose 0.1, 1.0 or 4.0 mg q 12 h oral), the “time of IB-MECA administration after which tear substitutes were no longer needed” value is 3-4 weeks. In addition, the “current dry eye symptoms under continued treatment” value in test [2] (patient-reported, long term extension protocol) is given as “no symptoms of dry eye”. Besides, the “condition of the RA (swollen and tender joints, ESR and CRP, global assessments, pain and disability)” value in test [3] is “marked improvement”.
